Experimental data: the supplement of paper PMC10307832

How the values were obtained:
Assay in all cases: relative viability (nuclei count vs DMSO), 5 days (fraction); higher = more cells survive
[1] = compound: COc1cc(Nc2ncc3c(n2)-c2ccc(Cl)cc2C(c2c(F)cccc2OC)=NC3)ccc1C(=O)O [Alisertib] + COc1cccc2cc(-c3nc([C@H]4CC[C@H](C(=O)O)CC4)n4ncnc(N)c34)[nH]c12 [OSI-027] (partner 0.5 µM)
How it was run: (§1)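 Lung cancer cell lines were seeded in 1536-well plates and dosed by pin tool the next day, with either a single drug or a fixed anchor-drug dose combined with five library-drug doses (not always all listed) spaced in √10 steps. Five days later, one step fixed the cells and stained their nuclei (final 0.05% Triton X-100, 1% formaldehyde, 1 ug/ml Hoechst), and nuclei were counted on 4× images. Relative viability is the nuclei count in treated wells divided by the count in vehicle wells, and each value is the median of duplicate plates.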

[2] = compound: COc1cc(Nc2ncc3c(n2)-c2ccc(Cl)cc2C(c2c(F)cccc2OC)=NC3)ccc1C(=O)O [Alisertib] + NC(=O)Nc1cc(-c2cccc(F)c2)sc1C(=O)N[C@H]1CCCNC1 [AZD7762] (partner 0.2 µM)
How it was run: as §1

[3] = compound: COc1cc(Nc2ncc3c(n2)-c2ccc(Cl)cc2C(c2c(F)cccc2OC)=NC3)ccc1C(=O)O [Alisertib] + COc1cc2c(Oc3ccc(NC(=O)C4(C(=O)Nc5ccc(F)cc5)CC4)cc3F)ccnc2cc1OCCCN1CCOCC1 [Foretinib] (partner 0.25 µM)
How it was run: as §1

[4] = compound: COc1cc(Nc2ncc3c(n2)-c2ccc(Cl)cc2C(c2c(F)cccc2OC)=NC3)ccc1C(=O)O [Alisertib] + Nc1nc2[nH]cc(CCc3ccc(C(=O)N[C@@H](CCC(=O)O)C(=O)O)cc3)c2c(=O)[nH]1 [Pemetrexed] (partner 0.2 µM)
How it was run: as §1

Cell Line	relative viability ([1]; first compound 0.005 µM)	relative viability ([1]; first compound 0.01581 µM)	relative viability ([1]; first compound 0.05 µM)	relative viability ([1]; first compound 0.1581 µM)	relative viability ([1]; first compound 0.5 µM)	relative viability ([2]; first compound 0.005 µM)	relative viability ([2]; first compound 0.01581 µM)	relative viability ([2]; first compound 0.05 µM)	relative viability ([2]; first compound 0.1581 µM)	relative viability ([2]; first compound 0.5 µM)	relative viability ([3]; first compound 0.005 µM)	relative viability ([3]; first compound 0.01581 µM)	relative viability ([3]; first compound 0.05 µM)	relative viability ([3]; first compound 0.1581 µM)	relative viability ([3]; first compound 0.5 µM)	relative viability ([4]; first compound 0.005 µM)	relative viability ([4]; first compound 0.01581 µM)	relative viability ([4]; first compound 0.05 µM)	relative viability ([4]; first compound 0.1581 µM)	relative viability ([4]; first compound 0.5 µM)
NCI-H2342	0.529	0.643	0.589	0.468	0.383	0.565	0.43	0.347	0.352	0.414	1.04	1.09	0.652	0.464	0.363	0.774	0.75	0.57	0.542	0.418
A-427	0.406	0.291	0.13	0.162	0.133	0.602	0.362	0.206	0.196	0.212	0.877	0.777	0.197	0.182	0.178	0.818	0.5	0.266	0.265	0.251
H3255	0.589	0.575	0.444	0.269	0.271	0.712	0.952	0.613	0.274	0.234	0.823	0.821	0.573	0.219	0.177	0.516	0.572	0.457	0.309	0.255
NCI-H1734	0.562	0.436	0.296	0.277	0.18	0.501	0.366	0.23	0.18	0.149	0.841	0.731	0.314	0.327	0.174	0.42	0.427	0.405	0.286	0.203
NCI-H1993	0.55	0.46	0.435	0.547	0.512	0.85	0.629	0.391	0.324	0.364	0.772	0.849	0.525	0.484	0.557	0.614	0.631	0.506	0.539	0.422
NCI-H1437	0.722	0.699	0.394	0.219	0.154	1.07	1.09	0.751	0.399	0.201	1.08	0.939	0.796	0.454	0.236	0.28	0.261	0.235	0.231	0.166
NCI-H596	0.606	0.665	0.788	0.727	0.26	0.96	1.02	1.15	0.926	0.66	0.87	0.804	0.762	0.175	0.395	0.504	0.506	0.473	0.447	0.38
201T	0.712	0.762	0.632	0.249	0.126	0.618	0.753	0.675	0.46	0.277	1.14	0.997	1.02	0.453	0.271	0.314	0.299	0.358	0.335	0.274
NCI-H358	0.716	0.507	0.144	0.0797	0.0701	0.424	0.433	0.183	0.175	0.165	0.608	0.485	0.181	0.111	0.0732	0.162	0.165	0.167	0.112	0.0889
ChaGo-K-1	0.423	0.537	0.349	0.138	0.15	0.827	0.755	0.633	0.213	0.166	0.922	0.845	0.237	0.21	0.192	0.238	0.281	0.238	0.189	0.169
LOU-NH91	0.682	0.719	0.674	0.389	0.324	0.759	0.721	0.585	0.436	0.393	0.921	0.922	0.655	0.444	0.366	0.428	0.385	0.369	0.349	0.354
HOP-62	0.683	0.727	0.537	0.243	0.176	0.447	0.412	0.268	0.158	0.0945	1.08	0.876	0.285	0.256	0.205	0.282	0.283	0.204	0.171	0.112
NCI-H1915	0.507	0.473	0.374	0.278	0.238	0.531	0.597	0.277	0.254	0.206	0.998	0.907	0.431	0.463	0.236	0.432	0.382	0.325	0.262	0.219
NCI-H3122	0.86	0.754	0.599	0.336	0.149	0.973	0.78	0.776	0.259	0.203	0.9	0.981	0.551	0.384	0.191	0.184	0.189	0.194	0.186	0.143
NCI-H1651	0.621	0.609	0.417	0.288	0.203	0.456	0.455	0.385	0.199	0.129	0.907	0.571	0.445	0.338	0.195	0.509	0.495	0.339	0.199	0.173
PC-14	0.659	0.8	0.393	0.0786	0.049	0.226	0.38	0.272	0.0966	0.0539	0.849	0.77	0.837	0.473	0.135	0.103	0.138	0.146	0.0731	0.052
